Test results published in patent publication US20060094059A1, “Methods for identifying new drug leads and new therapeutic uses for known drugs” (Odyssey Thera, Inc., priority 2004, published 2006).

Columns and labels:
[1] = system: non-small cell lung carcinoma (A549) cells; assay: MTT proliferation assay, NSCLC; format: cell-based, Human; details: Homo sapiens, Tumor Cell NSCLC (A549), 120 hours, read-out: Anti-proliferative IC-50
Description: (§1) Cells were maintained in various media as follows: A549, LoVo and PC-3 (Ham's F12K medium with 2 mM L-glutamine and 1.5 g/L sodium bicarbonate), MIA PaCa-2 (Dulbecco's modified Eagle's medium with 4 mM L-glutamine and 4.5 g/L glucose), U87-MG (MEM+Earle's BSS). Medium for each cell line was supplemented with 10% FBS and […] Penecillin/Streptomycin. All cells were grown in incubators set at 37° C., 5% CO2. Thiazolyl Blue Tetrazolium Bromide (MTT) based proliferation assays were performed to assess the anti-proliferative activities of the compounds on these cells. Cells were seeded in 96 well plates at a density of 750 cells/well 24 hours prior to compound treatment. The cells were incubated with varying concentrations of compounds for 120 hours. […] Drug treatment was performed in 5 replicate wells. Background absorbance was established by wells containing medium but no cells. Vehicle (DMSO) only was used as control. MTT (Sigma-Aldrich, St. Louis, Mo.) was added to each well at a final concentration of 0.5 mg/ml. Following a 2 hour incubation at 37° C., medium in the wells was replaced with 0.15 ml DMSO. The plates were agitated for 15 min using a microtiter plate shaker.

[2] = system: glioblastoma (U-87 MG) cells; assay: MTT proliferation assay, glioblastoma; format: cell-based; details: Homo sapiens, Tumor Cell Glioblastoma (U-87 MG), 120 hours, read-out: Anti-proliferative IC-50
Description: as §1

Cofilin:LIMK2 = assay: Protein-fragment complementation assay Cofilin:LIMK2; format: cell-based, human; details: hit in Cofilin/LIMK2 assay; drugs screened at 10 micromolar
Text: (§2) To construct dynamic assays for protein-protein complexes, we used a protein-fragment complementation assay strategy (PCAs) in intact human cells. (A variety of other suitable assays, and reporter options, are described in detail below.) The principle of PCA is that complementary polypeptide fragments (F[1] and F[2]) of a reporter protein or enzyme will fold into an active form only if fused to two proteins which interact and bring the complementary fragments of the reporter protein into proximity. Reconstitution of the fragments of the reporter protein generates a fluorescent signal that can be quantified in intact cells, and the amount of the signal is proportional to the amount of the protein-protein complex used in constructing the assay. Given a suitable reporter type, the subcellular location of the complex can also be measured.
(§3) Reporter fragments for PCA were generated by oligonucleotide synthesis (Blue Heron Biotechnology, Bothell, Wash.), starting with the sequence of yellow fluorescent protein (YFP). First, oligonucleotides coding for polypeptide fragments YFP[1]and YFP[2] […] Next, PCR mutagenesis was used to generate the mutant fragments IFP[1] and IFP[2]. The IFP[1] fragment corresponds to YFP[1]-(F46L, F64L, M153T) and the IFP[2] fragment corresponds to YFP[2]-(V163A, S175G). […]

HSP90:CDC37 = assay: Protein-fragment complementation assay Hsp90:CDC37; format: cell-based, human
Text: as §2, §3

HSP90:Eef2k = assay: Protein-fragment complementation assay Hsp90:Eef2k; format: cell-based, human
Text: as §2
Reporter fragments for PCA were generated by oligonucleotide synthesis (Blue Heron Biotechnology, Bothell, Wash.), starting with the sequence of yellow fluorescent protein (YFP). First, oligonucleotides coding for polypeptide fragments YFP[1]and YFP[2] […] Next, PCR mutagenesis was used to generate the mutant fragments IFP[1] and IFP[2]. The IFP[1] fragment corresponds to YFP[1]-(F46L, F64L, M153T) and the IFP[2] fragment corresponds to YFP[2]-(V163A, S175G). […] The YFP[1], YFP[2], IFP[1] and IFP[2] fragments were amplified by PCR to incorporate restriction sites and a linker sequence, described below, in configurations that would allow fusion of a gene of interest to either the 5′- or 3′-end of each reporter fragment. The reporter-linker fragment cassettes were subcloned into a mammalian expression vector (pcDNA3.1Z, Invitrogen) that had been modified to incorporate the replication origin (oriP) of the Epstein Barr virus (EBV). […] Additionally, these vectors still retain the SV40 origin, allowing for episomal expression in cell lines expressing the SV40 large T antigen (e.g. HEK293T, Jurkat or COS). […]

PIN1:JUN complexes = assay: Protein-fragment complementation assay PIN1:JUN; format: cell-based, human
Text: as §2, §3

Smad3:HDAC = assay: Protein-fragment complementation assay Smad3:HDAC; format: cell-based, human; details: hit in HDAC/SMAD3 assay; drugs screened at 10 micromolar
Text: as §2, §3

MAX:MYC = assay: Protein-fragment complementation assay MAX:MYC; format: cell-based, human; details: hit in MYC/MAX assay; drugs screened at 10 micromolar
Text: as §2, §3

For `O=C(Nc1ccc([N+](=O)[O-])cc1Cl)c1cc(Cl)ccc1O` [Niclosamide], the IC50 [1] was 660 nM, the IC50 [2] was 810 nM and the Assay activity (Cofilin:LIMK2) was “Cofilin/LIMK2,”. The “level of HSP90:CDC37 complexes (intensity of the fluorescence)” value (HSP90:CDC37; FIG. 3D) was “decrease in the level”, the Assay activity (HSP90:CDC37; hit in HSP90/CDC37 assay, drugs screened at 10 micromolar) was “HSP90/CDC37,” and the “level of HSP90:Eef2k complexes (intensity of the fluorescence)” value (HSP90:Eef2k; FIG. 3D) was “decrease in the level”. The Assay activity (HSP90:Eef2k; hit in HSP90/Eef2k assay, drugs screened at 10 micromolar) was “HSP90/Eef2k,”, the “level of PIN1:JUN complexes (intensity of the fluorescence)” value (PIN1:JUN complexes; FIG. 3A) was “decrease in the level” and the Assay activity (PIN1:JUN complexes; hit in PIN1/JUN assay, drugs screened at 10 micromolar) was “PIN1/JUN,”. For the same compound, the Assay activity (Smad3:HDAC) was “HDAC/SMAD3,” and the Assay activity (MAX:MYC) was “MYC/MAX”.
